Tests used:
[1] = system: HCT-8 (ileocecal adenocarcinoma); experiment: Human tumor cell replication assay (sulforhodamine B), HCT-8; type: cell-based; details: HCT8 cells, three days of continuous exposure, SRB assay
Procedure: (§1) Human Tumor Cell Replication Assay. Compounds were tested as inhibitors of cell growth against a limited panel of solid tumor lines including KB (epidermoid carcinoma, CL 17) and a camptothecin-resistant sub-line called KB-CPT; HCT-8 (ileocecal adenocarcinoma, CCL 244); MCF-7 (breast adenocarcinoma, HTB 22); PC-3 (prostate adenocarcinoma, CRL 1435); 1A9 (ovarian carcinoma) and a paclitaxel resistant sub-line called PTX10 with mutated β-tubulin. Drug-resistant cell lines were generous gifts of Dr. Y. C. Cheng (Yale University, New Haven, Conn.) and Dr. P. Giannakakou (NIH, Bethesda, Md.). Cell lines were adapted for growth in RPMI-1640 medium supplemented with 25 mM Hepes, 2% NaHCO3, 10% (v/v) fetal calf serum and 100 μg/mL kanamycin. Cultures were maintained in a 5% CO2 atmosphere at 37° C. The sulforhodamine B microtiter plate assay described by Rubinstein et al. (1990) J. Natl. Cancer Inst. 82:1113, was used to evaluate compounds as inhibitors of cell replication. The ED50 value, the concentration of compound that inhibited cell line replication by 50% relative to control after three days of continuous exposure was interpolated from dose-response graphs fitted to data using Prizm (GraphPad software, San Diego, Calif.).
(§2) The five conjugates (16-20) were tested for cytotoxicity against a panel of human tumor cell lines (HTCL) including paclitaxel-resistant and camptothecin-resistant derivatives as described in Rubinstein et al. (1990) J. Natl. Cancer Inst. 82:1113. The results are shown in Table 2 with the values for paclitaxel (1) and camptothecin (2) given for comparison.

[2] = system: PC-3 (prostate adenocarcinoma); experiment: Human tumor cell replication assay (sulforhodamine B), PC-3; type: cell-based; details: PC-3 cells, three days of continuous exposure, SRB assay
Procedure: as §1, §2

[3] = system: KB (epidermoid carcinoma); experiment: Human tumor cell replication assay (sulforhodamine B), KB; type: cell-based; details: KB cells; for Cell Line/ED50 KB: three days of continuous exposure, SRB assay
Procedure: as §1, §2

[4] = system: KB-CPT (camptothecin-resistant KB sub-line); experiment: Human tumor cell replication assay (sulforhodamine B), KB-CPT; type: cell-based; details: camptothecin-resistant KB-CPT cells, three days of continuous exposure, SRB assay
Procedure: as §1, §2

[5] = system: MCF-7 (breast adenocarcinoma); experiment: Human tumor cell replication assay (sulforhodamine B), MCF-7; type: cell-based; details: MCF-7 cells, three days of continuous exposure, SRB assay
Procedure: as §1, §2

[6] = system: 1A9-PTX10 (paclitaxel resistant sub-line with mutated β-tubulin); experiment: Human tumor cell replication assay (sulforhodamine B), PTX10; type: cell-based; details: paclitaxel-resistant IA9-PTX10 cells, three days of continuous exposure, SRB assay
Procedure: as §1, §2

[7] = system: 1A9 (ovarian carcinoma); experiment: Human tumor cell replication assay (sulforhodamine B), 1A9; type: cell-based; details: IA9 cells; for Cell Line/ED50 IA9: three days of continuous exposure, SRB assay
Procedure: as §1, §2

[8] = system: human tumor cell lines (HTCL); experiment: Human tumor cell line (HTCL) panel, mean over lines; type: cell-based; details: mean from HTCL data, does not include values for drug-resistant variants
Procedure: as §1, §2

[9] = biological target: T1, human DNA Topoisomerase I (Homo sapiens, UniProt P11387); experiment: DNA Topoisomerase I activity assay (plasmid DNA relaxation); type: biochemical
T1 construct: purchased TopoGen, Columbus, Ohio
T1 sequence (P11387 1-765): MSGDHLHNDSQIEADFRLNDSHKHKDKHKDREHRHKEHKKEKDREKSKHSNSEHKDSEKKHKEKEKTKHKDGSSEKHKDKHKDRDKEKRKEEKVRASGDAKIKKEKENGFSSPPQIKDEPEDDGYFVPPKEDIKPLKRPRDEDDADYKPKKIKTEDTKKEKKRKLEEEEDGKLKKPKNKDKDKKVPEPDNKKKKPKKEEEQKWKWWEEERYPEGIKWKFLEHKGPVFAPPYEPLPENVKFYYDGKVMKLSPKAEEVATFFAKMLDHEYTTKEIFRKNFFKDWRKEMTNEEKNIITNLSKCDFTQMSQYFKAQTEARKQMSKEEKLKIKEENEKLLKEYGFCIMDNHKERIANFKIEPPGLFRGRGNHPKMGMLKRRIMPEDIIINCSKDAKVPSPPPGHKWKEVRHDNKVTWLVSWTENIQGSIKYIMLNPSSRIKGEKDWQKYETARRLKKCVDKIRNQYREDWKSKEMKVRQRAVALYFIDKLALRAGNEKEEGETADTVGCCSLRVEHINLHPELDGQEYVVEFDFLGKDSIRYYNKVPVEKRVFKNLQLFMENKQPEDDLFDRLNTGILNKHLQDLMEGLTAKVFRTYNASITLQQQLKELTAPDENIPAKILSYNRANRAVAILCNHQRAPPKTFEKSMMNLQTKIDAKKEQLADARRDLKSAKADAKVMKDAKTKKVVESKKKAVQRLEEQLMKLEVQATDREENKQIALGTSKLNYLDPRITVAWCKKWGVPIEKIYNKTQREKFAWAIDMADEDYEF
Procedure: DNA Topoisomerase I Activity Assay. Compounds were tested as inhibitors of enzyme catalyzed plasmid DNA relaxation. Reactions contained 0.5 μg pBR322 DNA and 0.5 U human DNA Topoisomerase I (TopoGen, Columbus, Ohio), compounds at 50 μM and buffer components described previously in Krishnan et al. (2000) Anticancer Drug Design 15:255. After 15 min at 37° C., reactions were terminated by adding proteinase K (0.1 mg/mL) and 1% (w/v) SDS. After 1 hour at 50° C., DNA was resolved on a 1% (w/v) agarose gel containing […] ethidium bromide in standard TBE buffer, and photographed under UV light using polaroid 667 film.
Conjugates 16-20 were also tested as inhibitors of human DNA topo I activity in vitro (FIG. 4) in the manner as described in Krishnan et al. (2000) Anticancer Drug Design 15:255. […] None of the conjugates inhibited DNA relaxation.

[10] = at lowest test concentration (inhibition >50%)

Row | Compound | Cell Line/ED50 HCT8 [1] [log10 M] | Cell Line/ED50 PC-3 [2] [log10 M] | Cell Line/ED50 KB [3] [log10 M] | Cell Line/ED50 KB-CPT [4] [log10 M] | Cell Line/ED50 MCF-7 [5] [log10 M] | Cell Line/ED50 IA9-PTX10 [6] [log10 M] | Cell Line/ED50 IA9 [7] [log10 M] | Mean ED50 [8] [log10 M] | observed percentage inhibition (bracketed value) [3, 10] | observed percentage inhibition (bracketed value) [7, 10] | inhibition of human DNA topo I activity in vitro [9]
1 | CC(=O)O[C@H]1C(=O)[C@@]2(C)[C@H]([C@H](OC(=O)c3ccccc3)[C@]3(O)C[C@H](OC(=O)[C@H](O)[C@@H](NC(=O)c4ccccc4)c4ccccc4)C(C)=C1C3(C)C)[C@]1(OC(C)=O)CO[C@@H]1C[C@@H]2O [Paclitaxel, reference compound] | −7.1 | −10.3 | −12.1 | −12.2 | −13.9 | −11.7 | −12.2 | −11.1 | – | – | –
2 | CCC1(O)C(=O)OCc2c1cc1n(c2=O)Cc2c-1nc1ccccc1c2C=NCCC(=O)OC1CC2OCC2(OC(C)=O)C2C(OC(=O)c3ccccc3)C3(O)CC(OC(=O)C(O)C(NC(=O)c4ccccc4)c4ccccc4)C(C)=C(C(OC(C)=O)C(=O)C12C)C3(C)C (stereo not drawn) [Compound 16] | −10.6 | −7.0 | <−11.0 | −11.1 | −7.1 | −10.9 | <−11.0 | <−9.3 | (67) % | (76) % | only marginal activity
3 | CCC1(O)C(=O)OCc2c1cc1n(c2=O)Cc2c-1nc1ccccc1c2C=NCCCCCC(=O)OC1CC2OCC2(OC(C)=O)C2C(OC(=O)c3ccccc3)C3(O)CC(OC(=O)C(O)C(NC(=O)c4ccccc4)c4ccccc4)C(C)=C(C(OC(C)=O)C(=O)C12C)C3(C)C (stereo not drawn) [Compound 18] | −10.6 | −7.5 | −9.3 | −8.1 | −7.5 | −10.5 | −10.0 | −9.0 | – | – | only marginal activity
4 | CC[C@@]1(O)C(=O)OCc2c1cc1n(c2=O)Cc2cc3ccccc3nc2-1 [Camptothecin, camptothecin] | −9.3 | −7.1 | −10.8 | −7.5 | −7.1 | −9.4 | −10.2 | −8.9 | – | – | –
5 | CCC1(O)C(=O)OCc2c1cc1n(c2=O)Cc2c-1nc1ccccc1c2C=NCCCC(=O)OC1CC2OCC2(OC(C)=O)C2C(OC(=O)c3ccccc3)C3(O)CC(OC(=O)C(O)C(NC(=O)c4ccccc4)c4ccccc4)C(C)=C(C(OC(C)=O)C(=O)C12C)C3(C)C (stereo not drawn) [Compound 17] | −10.0 | −7.1 | −10.4 | −9.7 | −7.1 | −10.5 | −10.2 | −9.0 | – | – | inactive
